The results in this text go back to ChEMBL document CHEMBL5465560, “Selectivity Literature for EUbOPEN Chemogenomic Library” (2024).

pKd: −log10 of the molar value.

Test [1] concerns Leucine-rich repeat serine/threonine-protein kinase 2 (Homo sapiens), Q5S007 [I2020T]. Put plainly: (§1) Selectivity interaction (Adapta Assay) EUB0001632a LRRK2. The note with it: at 10 µM.
In test [2] the test system is Leucine-rich repeat serine/threonine-protein kinase 2 (Homo sapiens), Q5S007 [R1441C]. The test is described as §1. Conditions: at 10 µM.
Test [3] concerns the target Leucine-rich repeat serine/threonine-protein kinase 2 (Homo sapiens, UniProt Q5S007). The description is as §1. Conditions: at 10 µM.
In test [4] the test system is Leucine-rich repeat serine/threonine-protein kinase 2 (Homo sapiens), Q5S007 [G2019S]. The description is as §1. The note with it: at 10 µM.
For test [5], the target named is Serine/threonine-protein kinase/endoribonuclease IRE1 (Homo sapiens) (UniProt O75460). The experiment in a line: Selectivity interaction (LanthaScreen Eu Kinase Binding Assay) EUB0001632a ERN1. Conditions: at 10 µM.
In test [6] the target is Mitogen-activated protein kinase 6 (Homo sapiens) (UniProt Q16659). The note with it: at 10 µM.
The target of test [7] is Tyrosine-protein kinase Fyn (Homo sapiens) (UniProt P06241). The experiment in a line: Selectivity interaction (SelectScreen profiling (Invitrogen)) EUB0000607a FYN. Conditions: at 2 µM.
Test [8] has as its target Dual specificity protein kinase CLK2 (Homo sapiens, UniProt P49760). Conditions: at 10 µM.
Test [9] deals with Tyrosine-protein kinase ABL1 (Homo sapiens, UniProt P00519). The experiment in a line: Selectivity interaction (ActivX KiNativ screen (kinase selectivity in THP-1 cell lysates)) EUB0000639a ABL1. Conditions: lysate, at 5 µM. The class given is subcellular.
Test [10] has as its target Tyrosine-protein kinase Lyn (Homo sapiens, UniProt P07948). The experiment in a line: Selectivity interaction (ActivX KiNativ screen (kinase selectivity in THP-1 cell lysates)) EUB0000639a LYN. The note with it: lysate, at 0.04 µM. The class given is subcellular.
The target of test [11] is Interferon-induced, double-stranded RNA-activated protein kinase (Homo sapiens) (UniProt P19525). Put plainly: Selectivity interaction (ActivX KiNativ screen (kinase selectivity in THP-1 cell lysates)) EUB0000639a EIF2AK2. Format: subcellular. The note with it: lysate, at 5 µM.
Test [12] deals with Serine/threonine-protein kinase PAK 1 (Homo sapiens) (UniProt Q13153). Put plainly: Selectivity interaction (KinomeScan (DiscoverX)) EUB0001049a PAK1. Conditions: at 1 µM.
For test [13], the target named is Ribosomal protein S6 kinase alpha-1 (Homo sapiens, UniProt Q15418). Put plainly: Selectivity interaction (KinomeScan (DiscoverX)) EUB0001049a RPS6KA1. The note with it: at 1 µM.
Test [14] deals with Cyclin-dependent kinase 7 (Homo sapiens, UniProt P50613). Put plainly: Selectivity interaction (KINOMEscan (DiscoverX, competition-binding assay)) EUB0001868a CDK7.
In test [15] the target is Serine/threonine-protein kinase 38-like (Homo sapiens) (UniProt Q9Y2H1). Put plainly: Selectivity interaction (KinomeScan (DiscoverX)) EUB0000092b STK38L. The note with it: at 10 µM.
Test [16] has as its target T1, Non-receptor tyrosine-protein kinase TNK1 (Homo sapiens) (UniProt Q13470).
T1 sequence (whole entry): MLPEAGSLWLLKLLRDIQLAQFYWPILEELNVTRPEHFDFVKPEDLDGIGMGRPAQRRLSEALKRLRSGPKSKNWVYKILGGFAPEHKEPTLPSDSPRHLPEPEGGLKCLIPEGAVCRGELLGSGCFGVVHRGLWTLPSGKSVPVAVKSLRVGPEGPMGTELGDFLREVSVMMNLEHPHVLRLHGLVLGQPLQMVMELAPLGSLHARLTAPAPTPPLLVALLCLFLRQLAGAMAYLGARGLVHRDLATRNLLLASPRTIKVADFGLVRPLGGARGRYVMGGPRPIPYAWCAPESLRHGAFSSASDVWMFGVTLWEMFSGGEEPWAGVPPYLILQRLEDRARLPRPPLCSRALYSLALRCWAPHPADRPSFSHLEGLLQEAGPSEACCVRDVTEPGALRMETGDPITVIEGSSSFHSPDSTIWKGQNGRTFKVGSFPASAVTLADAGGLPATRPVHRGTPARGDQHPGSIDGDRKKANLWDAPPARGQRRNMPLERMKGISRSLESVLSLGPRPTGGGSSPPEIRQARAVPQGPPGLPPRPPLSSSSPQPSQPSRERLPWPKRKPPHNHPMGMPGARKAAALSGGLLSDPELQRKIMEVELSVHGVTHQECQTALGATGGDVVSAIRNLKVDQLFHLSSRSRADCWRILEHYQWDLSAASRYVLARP
The experiment in a line: Selectivity interaction (KinomeScan (DiscoverX)) EUB0001079a TNK1. The note with it: at 1 µM.

Test [17] has as its system Mast/stem cell growth factor receptor Kit (Homo sapiens), P10721 [D816H]. Put plainly: (§2) Selectivity interaction (KinomeScan (DiscoverX)) EUB0000229b KIT. Conditions: at 1 µM.
Test [18] concerns Mast/stem cell growth factor receptor Kit (Homo sapiens), P10721 [A829P]. Described as §2. Conditions: at 1 µM.
The subject of test [19] is Mast/stem cell growth factor receptor Kit (Homo sapiens), P10721 [L576P]. The test is described as §2. The note with it: at 1 µM.
Test [20] relates to Mast/stem cell growth factor receptor Kit (Homo sapiens), P10721 [V559D,T670I]. The description is as §2. The note with it: at 1 µM.
Test [21] concerns Mast/stem cell growth factor receptor Kit (Homo sapiens), P10721 [V559D,V654A]. The description is as §2. The note with it: at 1 µM.
Test [22] addresses Mast/stem cell growth factor receptor Kit (Homo sapiens, UniProt P10721). The test is described as §2. Conditions: at 10 µM.
Test [23] relates to Mast/stem cell growth factor receptor Kit (Homo sapiens), P10721 [D816V]. The description is as §2. The note with it: at 1 µM.
Test [24] has as its system Mast/stem cell growth factor receptor Kit (Homo sapiens), P10721 [V559D]. Described as §2. The note with it: at 1 µM.

Mast/stem cell growth factor receptor Kit, sequence (P10721 whole entry): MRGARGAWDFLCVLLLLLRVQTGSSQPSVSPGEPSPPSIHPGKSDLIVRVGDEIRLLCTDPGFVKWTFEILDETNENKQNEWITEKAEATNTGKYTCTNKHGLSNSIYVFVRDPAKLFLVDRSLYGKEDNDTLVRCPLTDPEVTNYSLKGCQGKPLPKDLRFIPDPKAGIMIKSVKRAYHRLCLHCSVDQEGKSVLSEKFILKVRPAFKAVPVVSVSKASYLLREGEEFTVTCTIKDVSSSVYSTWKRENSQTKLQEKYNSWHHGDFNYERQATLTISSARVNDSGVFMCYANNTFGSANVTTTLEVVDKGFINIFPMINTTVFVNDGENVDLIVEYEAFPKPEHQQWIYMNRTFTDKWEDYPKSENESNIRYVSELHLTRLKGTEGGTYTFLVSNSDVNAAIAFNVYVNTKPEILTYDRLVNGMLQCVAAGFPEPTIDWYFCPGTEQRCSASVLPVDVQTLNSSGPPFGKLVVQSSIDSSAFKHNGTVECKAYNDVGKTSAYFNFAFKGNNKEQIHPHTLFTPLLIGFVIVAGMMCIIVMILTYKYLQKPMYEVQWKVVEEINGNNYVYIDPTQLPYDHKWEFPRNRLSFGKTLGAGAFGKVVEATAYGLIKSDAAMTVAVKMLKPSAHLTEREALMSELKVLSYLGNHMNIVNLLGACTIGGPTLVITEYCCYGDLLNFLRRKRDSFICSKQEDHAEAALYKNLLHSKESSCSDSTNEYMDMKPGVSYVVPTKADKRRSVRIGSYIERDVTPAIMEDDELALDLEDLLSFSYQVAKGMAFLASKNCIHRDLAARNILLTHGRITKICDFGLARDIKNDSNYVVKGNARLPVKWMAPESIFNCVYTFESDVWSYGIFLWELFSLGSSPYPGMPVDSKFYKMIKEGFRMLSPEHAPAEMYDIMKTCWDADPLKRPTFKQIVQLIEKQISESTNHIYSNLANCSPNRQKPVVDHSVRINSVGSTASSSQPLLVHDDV
Mast/stem cell growth factor receptor Kit (Homo sapiens), P10721 [A829P], sequence (P10721 whole entry A829P): as the sequence (P10721 whole entry) above, with A829P counted along it
Leucine-rich repeat serine/threonine-protein kinase 2 (Homo sapiens), Q5S007 [I2020T], sequence (Q5S007 whole entry I2020T): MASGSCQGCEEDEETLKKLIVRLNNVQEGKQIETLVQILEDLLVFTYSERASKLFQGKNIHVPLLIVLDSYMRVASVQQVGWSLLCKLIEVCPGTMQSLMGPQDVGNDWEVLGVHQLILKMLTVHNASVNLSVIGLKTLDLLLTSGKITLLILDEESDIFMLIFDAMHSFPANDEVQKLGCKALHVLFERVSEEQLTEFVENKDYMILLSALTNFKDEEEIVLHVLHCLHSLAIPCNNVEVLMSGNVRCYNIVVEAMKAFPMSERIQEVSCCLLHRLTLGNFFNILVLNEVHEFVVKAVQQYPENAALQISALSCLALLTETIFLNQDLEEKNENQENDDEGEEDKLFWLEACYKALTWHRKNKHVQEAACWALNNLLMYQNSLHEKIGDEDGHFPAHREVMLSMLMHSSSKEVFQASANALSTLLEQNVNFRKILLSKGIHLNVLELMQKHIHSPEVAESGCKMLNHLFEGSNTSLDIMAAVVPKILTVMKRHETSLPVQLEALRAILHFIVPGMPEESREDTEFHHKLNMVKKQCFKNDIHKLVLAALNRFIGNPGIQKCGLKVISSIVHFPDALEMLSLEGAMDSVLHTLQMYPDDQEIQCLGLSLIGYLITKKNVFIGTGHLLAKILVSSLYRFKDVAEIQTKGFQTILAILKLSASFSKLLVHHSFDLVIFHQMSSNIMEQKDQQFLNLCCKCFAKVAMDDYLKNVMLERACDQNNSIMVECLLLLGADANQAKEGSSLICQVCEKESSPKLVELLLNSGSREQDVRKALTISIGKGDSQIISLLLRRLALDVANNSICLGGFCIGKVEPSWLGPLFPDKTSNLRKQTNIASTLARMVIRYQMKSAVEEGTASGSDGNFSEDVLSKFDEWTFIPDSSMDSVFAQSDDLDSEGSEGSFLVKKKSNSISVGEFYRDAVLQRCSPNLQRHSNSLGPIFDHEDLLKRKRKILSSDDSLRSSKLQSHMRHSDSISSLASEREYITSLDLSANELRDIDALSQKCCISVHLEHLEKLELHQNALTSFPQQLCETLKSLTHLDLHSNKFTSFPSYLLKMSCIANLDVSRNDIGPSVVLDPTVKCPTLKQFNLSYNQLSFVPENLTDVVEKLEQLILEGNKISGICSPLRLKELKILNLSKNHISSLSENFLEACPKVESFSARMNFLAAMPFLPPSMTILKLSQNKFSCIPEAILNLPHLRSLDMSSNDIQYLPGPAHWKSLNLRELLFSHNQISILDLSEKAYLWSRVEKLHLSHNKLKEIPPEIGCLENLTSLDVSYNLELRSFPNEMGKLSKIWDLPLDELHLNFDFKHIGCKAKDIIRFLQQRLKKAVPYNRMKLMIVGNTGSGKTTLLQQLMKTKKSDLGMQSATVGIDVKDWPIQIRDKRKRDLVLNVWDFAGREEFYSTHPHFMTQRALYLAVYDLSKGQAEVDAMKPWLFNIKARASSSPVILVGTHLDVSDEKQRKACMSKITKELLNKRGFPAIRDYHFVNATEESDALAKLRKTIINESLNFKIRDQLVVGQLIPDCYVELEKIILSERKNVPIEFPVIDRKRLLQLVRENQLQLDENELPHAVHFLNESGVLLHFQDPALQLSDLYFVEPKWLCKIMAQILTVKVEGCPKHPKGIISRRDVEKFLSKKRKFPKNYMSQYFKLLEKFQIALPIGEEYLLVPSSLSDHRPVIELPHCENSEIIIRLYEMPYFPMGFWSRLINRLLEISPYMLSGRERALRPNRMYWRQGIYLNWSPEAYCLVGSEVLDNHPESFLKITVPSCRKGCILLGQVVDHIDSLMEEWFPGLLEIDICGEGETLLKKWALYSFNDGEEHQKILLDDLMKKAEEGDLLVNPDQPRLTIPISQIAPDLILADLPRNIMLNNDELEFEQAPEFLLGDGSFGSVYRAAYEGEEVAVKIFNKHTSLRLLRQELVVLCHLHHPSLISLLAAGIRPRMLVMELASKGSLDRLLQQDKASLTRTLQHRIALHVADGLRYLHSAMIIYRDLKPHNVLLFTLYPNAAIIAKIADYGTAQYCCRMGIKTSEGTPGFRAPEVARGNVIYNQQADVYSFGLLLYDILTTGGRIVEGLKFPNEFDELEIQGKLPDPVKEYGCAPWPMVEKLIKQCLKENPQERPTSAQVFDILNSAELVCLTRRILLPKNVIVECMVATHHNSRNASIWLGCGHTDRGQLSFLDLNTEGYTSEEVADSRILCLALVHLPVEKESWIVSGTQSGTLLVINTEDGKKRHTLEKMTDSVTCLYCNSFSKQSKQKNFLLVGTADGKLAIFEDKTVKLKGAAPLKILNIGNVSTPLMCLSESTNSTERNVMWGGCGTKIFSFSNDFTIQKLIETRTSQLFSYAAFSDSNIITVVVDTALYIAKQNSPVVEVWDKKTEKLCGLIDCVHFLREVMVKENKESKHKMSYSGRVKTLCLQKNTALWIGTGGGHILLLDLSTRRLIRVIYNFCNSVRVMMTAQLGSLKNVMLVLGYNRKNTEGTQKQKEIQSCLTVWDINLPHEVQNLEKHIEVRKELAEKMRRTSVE
Serine/threonine-protein kinase 38-like (Homo sapiens), sequence (Q9Y2H1 2-464 limits assumed): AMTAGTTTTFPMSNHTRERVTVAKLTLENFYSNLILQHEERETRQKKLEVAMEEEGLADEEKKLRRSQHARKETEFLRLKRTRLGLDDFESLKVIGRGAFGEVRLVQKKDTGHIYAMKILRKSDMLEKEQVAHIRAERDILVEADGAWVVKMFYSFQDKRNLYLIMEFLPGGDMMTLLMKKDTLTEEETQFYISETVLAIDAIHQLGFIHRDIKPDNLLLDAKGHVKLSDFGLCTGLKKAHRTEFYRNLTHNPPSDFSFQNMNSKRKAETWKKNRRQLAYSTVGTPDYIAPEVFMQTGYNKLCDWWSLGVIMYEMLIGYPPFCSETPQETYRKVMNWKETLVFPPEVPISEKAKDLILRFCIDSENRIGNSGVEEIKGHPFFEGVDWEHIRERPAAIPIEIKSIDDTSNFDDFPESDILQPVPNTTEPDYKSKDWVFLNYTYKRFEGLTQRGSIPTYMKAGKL

With `Cn1cc(-n2cnc3c(NCc4nc5cc(Cl)c(Cl)cc5[nH]4)nc(N4CCOCC4)nc32)cn1`, the % of inhibition was 100% in [1]; 96.1% in [2]; 18.9% in [3]; 23.9% in [4]; -111% in [5].
Regarding `CCN(CC)CCCCNc1ncc2cc(-c3cc(OC)cc(OC)c3)c(NC(=O)NC(C)(C)C)nc2n1`, the % of control in [6] worked out at 100%.
For the compound `CNC(=O)Nc1ccc(-c2nc(N3CC4CCC(C3)O4)c3cnn(C4CCC5(CC4)OCCO5)c3n2)cc1`, the % of inhibition in test [7] worked out at 2%.
With `Cc1cc([C@@H](C)Nc2ccccc2C(=O)O)c2nc(N3CCOCC3)cc(=O)n2c1` [AZD-6482], the % of control in test [8] was determined as 70%.
With `CC[C@@H]1[C@H](F)C(=O)N[C@@H]1COc1nccc2cc(C(N)=O)c(OC)cc12` [ZIMLOVISERTIB], the % of inhibition in test [9] was 30.7%; in test [10], -15.2%; in test [11], 0.6%.
`COc1cc(Nc2nc(C)cc(-c3cnn4nc(OC)ccc34)n2)cc(C(F)(F)F)c1`: the % of control amounted to 86% in [12] and 88% in test [13].
In turn, `Cc1cc(-c2ccnc(Nc3cnn(C)c3)n2)ccc1CNC(=O)N1CC(OC(C)C)C1` had a pKd in [14] of 6.06.
As for `CCC(=O)N1CCN(c2ccc(-n3c(=O)ccc4cnc5ccc(-c6cnc7ccccc7c6)cc5c43)cc2C(F)(F)F)CC1`, the % of control in test [15] is 94%.
Compound `Nc1cnc(N2CCc3cc(S(=O)(=O)Nc4c(F)cc(Cl)cc4F)cc(N4CCCC4=O)c32)nc1` [TP-020n] showed a % of control in test [16] of 100%.
Regarding `COc1cc(N(C)c2ccnc3ccc(C(F)(F)F)cc23)cc(OC)c1OC`, the % binding in [17] stood at 79%; in test [18] it was 72%; in test [19], 100%; in [20], 94%; in test [21], 100%; in test [22] it was 84%. Moreover, the % binding in [23] and in [24] was 95% throughout.

Usually pKd stands for −log10 of the Kd, conventionally taken in molar units.
